In publication PMC8231342, “Potency of bisresorcinol from Heliciopsis terminalis on skin aging: in vitro bioactivities and molecular interactions” (PeerJ, 2021):
“And” between values parts separate entries of the source, which are not always exact repeats. Identical values can stand only once. Like-named read-outs stand apart in the source and are kept apart here. Each block holds one compound with its values, some of them ahead of it.

Legend:
Format in all cases: biochemical
[1] = biological target: Mushroom tyrosinase (EC.1.14.18.1) (Agaricus bisporus, UniProt C7FF04); experiment: Tyrosinase inhibition assay (L-tyrosine substrate); conditions: for inhibition at 10 µg/mL: conc 10 ug/ml
Sequence of Mushroom tyrosinase (EC.1.14.18.1) (C7FF04 2-392): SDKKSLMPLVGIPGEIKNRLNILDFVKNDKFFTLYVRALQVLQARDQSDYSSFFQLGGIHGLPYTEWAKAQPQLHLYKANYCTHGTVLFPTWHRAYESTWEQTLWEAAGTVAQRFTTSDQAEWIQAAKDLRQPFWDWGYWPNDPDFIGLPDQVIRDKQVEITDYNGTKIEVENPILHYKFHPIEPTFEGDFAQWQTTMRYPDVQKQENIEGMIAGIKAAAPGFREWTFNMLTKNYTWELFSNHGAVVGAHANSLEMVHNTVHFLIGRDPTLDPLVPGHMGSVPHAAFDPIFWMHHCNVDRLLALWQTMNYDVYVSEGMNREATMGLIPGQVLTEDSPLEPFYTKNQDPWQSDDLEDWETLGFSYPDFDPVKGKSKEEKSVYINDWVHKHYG
Method: In brief, the assay was carried out in 0.05 mol L^−1 phosphate buffer pH 6.8. Mushroom tyrosinase (EC.1.14.18.1) was dissolved in the buffer to a concentration of 100 units mL^−1. L-tyrosine, an enzyme substrate, was prepared to a concentration of 0.25 mg mL^−1 in the buffer. […] Into a well of 96-well plates, 10 µl sample and 40 µl L-tyrosine solution were mixed and incubated for 10 min at room temperature. After that 50 µl enzyme solution was inoculated and mixed thoroughly. The reaction was stopped afterward by incubation on ice for 1 min. […] The percentage inhibition (%) was calculated by the equation as follows:
%Inhibition={1–(Asam,10–Asam,0)÷(Acont,10–Acont,0)}×100.

[2] = biological target: porcine pancreatic elastase (EC.3.4.21.36) (Sus scrofa, UniProt P00772); experiment: Elastase inhibition assay (SANA substrate)
Sequence of porcine pancreatic elastase (EC.3.4.21.36) (P00772 27-266): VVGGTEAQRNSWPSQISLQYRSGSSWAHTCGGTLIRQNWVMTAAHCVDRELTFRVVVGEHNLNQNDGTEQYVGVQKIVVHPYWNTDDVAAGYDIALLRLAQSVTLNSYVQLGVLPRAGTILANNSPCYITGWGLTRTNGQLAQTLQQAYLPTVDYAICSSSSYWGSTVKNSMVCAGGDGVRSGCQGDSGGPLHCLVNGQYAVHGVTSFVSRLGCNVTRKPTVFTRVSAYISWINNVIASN
Method: The assay according to [Abhijit & Manjushree (2010)] was applied with some modifications. Briefly, the buffer system was 0.2 mM Tris-HCl buffer (pH 8.0). A solution of 1 µg mL^−1 porcine pancreatic elastase (EC.3.4.21.36) was prepared in sterile water. The enzyme substrate, N-Succinyl-Ala-Ala-Ala-p-nitroanilide (SANA), was dissolved in the buffer to a concentration of 80 mmol L^−1. A sample dissolved in DMSO was diluted to various concentrations by using the buffer. A 100-µl sample solution was mixed with 50 µl enzyme solution and incubated for 15 min. After that 50 µl of the enzyme substrate solution was added and thoroughly mixed. The OD410 was measured immediately (0 min) and after incubation overnight (o/n) at 37 °C by using a microplate reader. Ursolic acid was used as a positive control (Fig. 1), and water was used as a negative control. The percentage inhibition (%) was calculated by the following equation:
%Inhibition={1–[(Asam,o/n–Asam,0)÷(Acont,o/n–Acont,0)]}×100.

[3] = system: Collagenase from Clostridium histolyticum (EC.3.4.24.3); experiment: Collagenase inhibition assay (fluorogenic peptide substrate)
Method: The recent anti-collagenase assay was modified from that previously described by [Widyowati et al. (2016)]. In brief, 50 mmol L^−1 tricine buffer pH 7.5 supplemented with 400 mmol L^−1 NaCl and 10 mmol L^−1 CaCl2 was used as the buffering diluent. Collagenase from Clostridium histolyticum (EC.3.4.24.3) was dissolved in the buffer to a concentration of 1 mg L^−1. The enzyme substrate, MOCAc-PRO-Leu-Gly-Leu-A2pr (Dnp)-Ala-Arg-NH2, was prior dissolved in DMSO and subsequently diluted in the buffer to a concentration of 1 mmol L^−1. A sample dissolved in DMSO was diluted to different concentrations by using the buffer. A 2-µl sample solution was incubated with 100 µl enzyme solution at 37 °C for 10 min. Then, a 50-µl substrate was added and thoroughly mixed. Fluorescence emission (F) at 405 nm was immediately recorded and continually monitored for 30 min using a wavelength of 320 nm for excitation. Caffeic acid was used as a position control (Fig. 1). Negative control was performed with water. The percent inhibition (%) was calculated from the equation below:
%Inhibition={1–(Fsam,30–Fsam,0)÷(Fcont,30–Fcont,0)}×100.

[4] = individual replicates, read-out: % inhibition tyrosinase, replicates 1-3
[5] = read-out: % inhibition tyrosinase, ave
[6] = individual replicates, read-out: % inhibition elastase, replicates 1-3
[7] = read-out: % inhibition elastase, ave
[8] = individual replicates, read-out: ic50 elastase, N1-N3 (converted)
[9] = mean ± SEM, triplicate, read-out: IC50 elastase inhibition
[10] = individual replicates, read-out: ic50 collagenase, N1-N3
[11] = mean ± SEM, triplicate, read-out: IC50 collagenase inhibition

Structure (SMILES): Oc1cc(O)cc(CCCCCCCC=CCCCCCCCc2cc(O)cc(O)c2)c1 [Bisresorcinol, (8′Z)-3,5-dihydroxy-1-[16′-(3″,5″-dihydroxyphenyl)-8′-hexadecen-1′-yl]benzene]
inhibition at 10 µM [1, 4]: 52.4%
inhibition at 10 µM [1, 5]: 44.4%
inhibition at 28 µM [1, 4]: 81.8%
inhibition at 28 µM [1, 5]: 78.5%
inhibition at 30 µM ([1]; 30 uM, individual replicates, read-out: % inhibition tyrosinase, replicates 1-3): 81.8%
inhibition at 30 µM ([1]; 30 uM, read-out: % inhibition tyrosinase, ave): 78.5%
inhibition at 34 µM [1, 4]: 86.3%
inhibition at 34 µM [1, 5]: 84.3%
inhibition at 40 µM ([1]; 40 uM, individual replicates, read-out: % inhibition tyrosinase, replicates 1-3): 119%
inhibition at 40 µM ([1]; 40 uM, read-out: % inhibition tyrosinase, ave): 100%
inhibition at 50 µM ([1]; 50 uM, individual replicates, read-out: % inhibition tyrosinase, replicates 1-3): 138%
inhibition at 50 µM ([1]; 50 uM, read-out: % inhibition tyrosinase, ave): 100%
inhibition at 50 µM ([1]; at 50 µmol L^−1, read-out: tyrosinase inhibition): 100%
inhibition at 10 µg/mL ([1]; individual replicates, read-out: % inhibition tyrosinase, N1-N3): 52.4%
inhibition at 10 µg/mL [1, 5]: 44.4%
inhibition at 12.5 µg/mL ([1]; conc 12.5 ug/ml, individual replicates, read-out: % inhibition tyrosinase, N1-N3): 81.8%
inhibition at 12.5 µg/mL ([1]; conc 12.5 ug/ml, read-out: % inhibition tyrosinase, ave): 78.5%
inhibition at 15 µg/mL ([1]; conc 15 ug/ml, individual replicates, read-out: % inhibition tyrosinase, N1-N3): 86.3%
inhibition at 15 µg/mL ([1]; conc 15 ug/ml, read-out: % inhibition tyrosinase, ave): 84.2%
inhibition at 23 µM ([2]; 23 uM, read-out: % inhibition elastase, ave): 20.8%
inhibition at 34 µM [2, 6]: 46.5%
inhibition at 34 µM [2, 7]: 34.7%
inhibition at 45 µM [2, 6]: 99.6%
inhibition at 45 µM [2, 7]: 99.7%
inhibition at 50 µM ([2]; at 50 µmol L^−1, read-out: maximum inhibition of elastase): 100%
IC50 ([2]; average of N1-N3, read-out: ic50 elastase, ave (converted)): 33.4 µM
% inhibition elastase, N1-N3 ([2]; conc 10 ug/ml, individual replicates): 30.14% and 20.28% and 11.87%
inhibition at 10 µg/mL ([2]; conc 10 ug/ml, read-out: % inhibition elastase, ave): 20.8%
% inhibition elastase, N1-N3 ([2]; conc 15 ug/ml, individual replicates): 30.89% and 26.77%
inhibition at 15 µg/mL ([2]; conc 15 ug/ml, individual replicates, read-out: % inhibition elastase, N1-N3): 46.5%
inhibition at 15 µg/mL ([2]; conc 15 ug/ml, read-out: % inhibition elastase, ave): 34.7%
% inhibition elastase, N1-N3 ([2]; conc 20 ug/ml, individual replicates): 99.58% and 99.76%
inhibition at 20 µg/mL ([2]; conc 20 ug/ml, individual replicates, read-out: % inhibition elastase, N1-N3): 99.6%
inhibition at 20 µg/mL ([2]; conc 20 ug/ml, read-out: % inhibition elastase, ave): 99.7%
IC50 [2, 8]: 35 µM and 31.2 µM and 34 µM and 34.8 µM and 31 µM and 33.8 µM
IC50 [2, 9]: 33.2 ± 1.1 µM
% inhibition collagenase, ave ([3]; 56 uM): 0.0%
% inhibition collagenase, ave ([3]; 113 uM): 33.0%
% inhibition collagenase, ave ([3]; 226 uM): 81.31% and 81.3%
ic50 collagenase, ave ([3]; average of N1-N3): 69.5 µg/mL
% inhibition collagenase, ave ([3]; conc 25 ug/ml): 0.00%
% inhibition collagenase, N1-N3 ([3]; conc 25 ug/ml, individual replicates): 0.00% and 0% (2×)
% inhibition collagenase, ave ([3]; conc 50 ug/ml): 32.97%
% inhibition collagenase, N1-N3 ([3]; conc 50 ug/ml, individual replicates): 38.51% and 27.91% and 32.48%
% inhibition collagenase, ave ([3]; conc 100 ug/ml): 81.31%
% inhibition collagenase, N1-N3 ([3]; conc 100 ug/ml, individual replicates): 82.28% and 81.54% and 80.12%
ic50 collagenase, N1-N3 ([3]; individual replicates): 70.18 µg/mL and 67.47 µg/mL and 70.79 µg/mL
IC50 [3, 10]: 158 µM and 152 µM and 160 µM
IC50 [3, 11]: 157 ± 2.3 µM

Structure (SMILES): O=C(O)/C=C/c1ccc(O)c(O)c1 [Caffeic acid, caffeic acid, reference compound]
% inhibition collagenase, ave ([3]; 140 uM): 30.4%
% inhibition collagenase, ave ([3]; 280 uM): 51.1%
% inhibition collagenase, ave ([3]; 560 uM): 72.8%
% inhibition collagenase, ave ([3]; conc 280 uM (14 mM is the stock sample solution)): 30.37%
% inhibition collagenase, N1-N3 ([3]; conc 14 mM, individual replicates): 37.46% and 22.54% and 31.12%
% inhibition collagenase, ave ([3]; conc 28 mM): 51.14%
% inhibition collagenase, N1-N3 ([3]; conc 28 mM, individual replicates): 50.5% and 50.77% and 52.14%
% inhibition collagenase, ave ([3]; conc 56 mM): 72.77%
% inhibition collagenase, N1-N3 ([3]; conc 56 mM, individual replicates): 71.84% and 74.23% and 72.24%
IC50 [3, 10]: 307 µM and 286 µM and 334 µM
IC50 [3, 11]: 309 ± 13.7 µM

% inhibition elastase, replicates 1-3 ([2]; 10 uM, individual replicates): 25.34% and 30.65%
inhibition at 10 µM ([2]; 10 uM, individual replicates, read-out: % inhibition elastase, replicates 1-3): 26.2%
inhibition at 10 µM ([2]; 10 uM, read-out: % inhibition elastase, ave): 27.4%
% inhibition elastase, replicates 1-3 ([2]; 30 uM, individual replicates): 46.86% and 46.62%
inhibition at 30 µM ([2]; 30 uM, individual replicates, read-out: % inhibition elastase, replicates 1-3): 48.1%
inhibition at 30 µM ([2]; 30 uM, read-out: % inhibition elastase, ave): 47.2%
% inhibition elastase, replicates 1-3 ([2]; 35 uM, individual replicates): 50.36% and 49.93%
inhibition at 35 µM ([2]; 35 uM, individual replicates, read-out: % inhibition elastase, replicates 1-3): 51.1%
inhibition at 35 µM ([2]; 35 uM, read-out: % inhibition elastase, ave): 50.5%
% inhibition elastase, replicates 1-3 ([2]; 40 uM, individual replicates): 53.85% and 54.07%
inhibition at 40 µM ([2]; 40 uM, individual replicates, read-out: % inhibition elastase, replicates 1-3): 53.2%
inhibition at 40 µM ([2]; 40 uM, read-out: % inhibition elastase, ave): 53.7%
% inhibition elastase, ave ([2]; 50 uM): 72.36%
% inhibition elastase, replicates 1-3 ([2]; 50 uM, individual replicates): 74.42% and 69.89%
inhibition at 50 µM ([2]; 50 uM, individual replicates, read-out: % inhibition elastase, replicates 1-3): 72.8%
inhibition at 50 µM ([2]; 50 uM, read-out: % inhibition elastase, ave): 72.4%
% inhibition elastase, ave ([2]; 100 uM): 87.51%
% inhibition elastase, replicates 1-3 ([2]; 100 uM, individual replicates): 89.73% and 85.61%
inhibition at 100 µM ([2]; 100 uM, individual replicates, read-out: % inhibition elastase, replicates 1-3): 87.2%
inhibition at 100 µM ([2]; 100 uM, read-out: % inhibition elastase, ave): 87.5%
inhibition at 100 µM ([2]; at 100 µmol L^−1, read-out: elastase inhibition): 80%
IC50 [2, 8]: 33.2 µM and 35.1 µM and 34.5 µM
IC50 [2, 9]: 34.3 ± 0.6 µM
Structure (SMILES): C[C@H]1[C@H](C)CC[C@]2(C(=O)O)CC[C@]3(C)C(=CC[C@@H]4[C@@]5(C)CC[C@H](O)C(C)(C)[C@@H]5CC[C@]43C)[C@H]12 [Ursolic acid, ursolic acid, reference compound]

Structure (SMILES): OC[C@H]1O[C@@H](Oc2ccc(O)cc2)[C@H](O)[C@@H](O)[C@@H]1O [β-Arbutin, β-arbutin, reference compound]
inhibition at 12.5 µg/mL ([1]; read-out: % inhibition tyrosinase, N1-N3, conc 12.5 ug/ml, individual replicates): 31.2%
inhibition at 15 µg/mL ([1]; read-out: % inhibition tyrosinase, N1-N3, conc 15 ug/ml, individual replicates): 36.9%
inhibition at 25 µg/mL ([1]; read-out: % inhibition tyrosinase, N1-N3, conc 25 ug/ml, individual replicates): 59.7%
inhibition at 30 µM ([1]; read-out: % inhibition tyrosinase, ave, 30 uM): 18.4%
inhibition at 40 µM ([1]; read-out: % inhibition tyrosinase, ave, 40 uM): 24.9%
inhibition at 46 µM ([1]; read-out: % inhibition tyrosinase, ave, 46 uM): 28.8%
inhibition at 50 µM ([1]; read-out: % inhibition tyrosinase, ave, 50 uM): 34.4%
inhibition at 92 µM ([1]; read-out: % inhibition tyrosinase, ave, 92 uM): 58.8%
inhibition at 12.5 µg/mL ([1]; read-out: % inhibition tyrosinase, ave, conc 12.5 ug/ml): 28.8%
inhibition at 15 µg/mL ([1]; read-out: % inhibition tyrosinase, ave, conc 15 ug/ml): 34.8%
inhibition at 25 µg/mL ([1]; read-out: % inhibition tyrosinase, ave, conc 25 ug/ml): 58.8%
inhibition at 30 µM ([1]; read-out: % inhibition tyrosinase, replicates 1-3, 30 uM, individual replicates): 18.7%
inhibition at 40 µM ([1]; read-out: % inhibition tyrosinase, replicates 1-3, 40 uM, individual replicates): 25.7%
inhibition at 46 µM ([1]; read-out: % inhibition tyrosinase, replicates 1-3, 46 uM, individual replicates): 31.2%
inhibition at 50 µM ([1]; read-out: % inhibition tyrosinase, replicates 1-3, 50 uM, individual replicates): 30.5%
inhibition at 92 µM ([1]; read-out: % inhibition tyrosinase, replicates 1-3, 92 uM, individual replicates): 59.7%
